According to patent publication US8778966B2, “Quinolinone derivatives as PARP and tank inhibitors” (Janssen Pharmaceutica, NV, priority 2007, dated 2014):

Columns and labels:
Assay type in all cases: cell-based, human
[1] = tested on: PC-3 cells; test: Antiproliferative activity, Alamar Blue assay, PC-3 cells; details: Homo sapiens, PC-3, PC3 cells; read-out: PC3 antiproliferative activity pIC50 (converted)
How it was run: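 PC-3 cells seeded at 4.5×10^3 cells/ml, left to adhere 24 hr, then exposed to compound for 4 days. Resazurin (Alamar Blue) added for a further 24 hrs at 37° C; fluorescence read at 540/590 nm. Viability as % of untreated control, mean of 3 wells; IC50 by probit analysis, reported as pIC50.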

[2] = tested on: HCT116 cells; test: Antiproliferative activity, Alamar Blue assay, HCT116 cells; details: Homo sapiens, HCT-116, HCT116 cells; read-out: HCT116 antiproliferative activity pIC50 (converted)
How it was run: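 HCT116 cells seeded, adhered 24 h, then exposed to compound for 4 days; Alamar Blue (resazurin) added for 4 h at 37 °C, fluorescence read at 540/590 nm. Viability as % of untreated control, triplicate wells; IC50 by probit analysis, reported as pIC50.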

[3] = tested on: HCT116 cells; test: Mitotic arrest assay on HCT116 cells (phospho-histone H3 Ser10); details: Homo sapiens, HCT-116, HCT116 cells; lowest active dose; read-out: Mitotic arrest HCT116 LAD (converted)
Text: Phosphorylation of histone H3 is tightly correlated with chromosome condensation during both mitosis and meiosis. The assay is a cellular immunosorbent assay wherein the sole antibody is labelled with a detectable conjugate. The phospho-histone H3 (ser10) antibody detects endogenous levels of histone H3 only when phosphorylated at serine 10. […] In parallel with antibody detection, the nuclei of the cells are stained with Hoechst 33342 for cell-counting. Cells are detected and analysed using the InCell Analyzer 1000 from GE Healthcare. Since both the antibody-detection as well as the Hoechst-staining are in the nucleus, the dual area object intensity algorithm is used for analysing the wells.
All compounds tested were dissolved in DMSO and further dilutions were made in culture medium. Final DMSO concentrations never exceeded 0.1% (v/v).
HCT116 cells (supplier: ATCC) (human colon carcinoma cell line) were cultivated in Mc Coy's 5 A medium (supplier: Gibco) supplemented with 10% foetal calf serum (FCS), 2 mM L-glutamine and gentamycin at 37° C. in a humidified incubator with 5% CO2.
HCT116 cells were seeded at 20.000 cells per well in a 96 well plate (black/clear bottom, poly-D-lysine coated, supplier Greiner), cultured overnight to adhere to the bottom of the plate and treated with compound for 6 hours at 37° C. in a humidified incubator. After incubation, the medium was removed and cells were fixed using 100 μl/well formaldehyde (Accustain®, Formaline solution 10% neutral buffered, contains 4% formaldehyde w/v, supplier: Sigma) was added. After incubation for 15 minutes at room temperature, the formaldehyde was removed and cells were incubated with methanol (−20° C.) for 15 minutes at room temperature. After incubation, cells were washed once with phosphate-buffered saline (PBS —CaCl2, —MgCl2, suppier: Gibco)/0.05% Tween 20. The anti-phospho-histone H3 (Ser10) Alexa Fluor 488 antibody (supplier: Cell signalling) is used for detection of the cells inmitosis. The antibody was diluted 1/50 in 5% bovine serum albumins (BSA) and 50 μl/well was used for incubation overnight at room temperature in the dark.
A 1/2000 dilution of Hoechtst 33342 (10 mg/ml, supplier: Invitrogen) was made and 100 μl/well was added for at least 30 minutes before acquiring images. The absorbance at dual wavelengths of 360/480 nm was measured using the InCell Analyzer 1000 from GE Healthcare and the results were then analyzed.
For each experiment, controls (containing no drug) and a blank incubation (containing no cells or drugs) were run in parallel. Analysis was done in triplicate. Low cell count wells were invalidated. The blank value was subtracted from all control and sample values and divided by the standard deviation of the measurements. The compounds were considered active when the obtained value (sigma) was >5. Herein the effects of test compounds are expressed as the lowest dose giving a sigma value of >5 (LAD) (see table F-2).

SMILES | IC50 [1] [nM] | IC50 [2] [nM] | minimal effective concentration [3] [µM]
CCc1cc2ccc(C(C)(C#N)Cc3ccc4c(c3)nnn4C)cc2[nH]c1=O (stereo not drawn) [Compound 123] | > 10000 | 3980 | 3.16
CCc1cc2ccc(C(C)(C#N)Cc3ccc4c(c3)OCCO4)cc2[nH]c1=O (stereo not drawn) [Compound 124] | 2000 | 501 | 0.316
CCc1cc2ccc(C(C)(C#N)Cc3cc(C(F)(F)F)cc(C(F)(F)F)c3)cc2[nH]c1=O (stereo not drawn) [Compound 131] | > 10000 | 6310 | 3.16
CCOc1ccccc1OCCC(C)(C#N)c1ccc2cc(CC)c(=O)[nH]c2c1 (stereo not drawn) [Compound 142] | 316 | 316 | 0.316
CCc1cc2ccc(C(C)(C#N)CCOc3ccccc3)cc2[nH]c1=O (stereo not drawn) [Compound 145] | 501 | 398 | 0.316
CCc1cc2ccc(C(C)(C#N)CCOc3ccc(OC)cc3)cc2[nH]c1=O (stereo not drawn) [Compound 147] | 794 | 501 | 0.316
CCc1cc2ccc(C(C)(C#N)CCOc3ccccc3C)cc2[nH]c1=O (stereo not drawn) [Compound 148] | 794 | 316 | 0.316
CCc1cc2ccc(C(C)(C#N)CCOc3ccc(C)cc3)cc2[nH]c1=O (stereo not drawn) [Compound 149] | 1000 | 631 | 0.316
CCc1cc2ccc(C(C)(C#N)CCOc3ccccc3Cl)cc2[nH]c1=O (stereo not drawn) [Compound 152] | 1580 | 631 | 0.316
CCc1cc2ccc(C(C)(C#N)CCOc3ccccc3Br)cc2[nH]c1=O (stereo not drawn) [Compound 153] | 631 | 200 | 0.316
CCc1cc2ccc(C(C)(C#N)CCOc3ccc(Cl)cc3Cl)cc2[nH]c1=O (stereo not drawn) [Compound 154] | 398 | 398 | 0.316
CCc1cc2ccc(C(C)(C#N)CCOc3ccc(SC)cc3)cc2[nH]c1=O (stereo not drawn) [Compound 155] | 1580 | 6310 | 1
CCc1cc2ccc(C(C)(C#N)CC3CN(C)c4ccccc4O3)cc2[nH]c1=O (stereo not drawn) [Compound 156] | 2510 | 2000 | 0.316
CCc1cc2ccc(C(C)(C#N)CCOc3ccc4ccccc4c3)cc2[nH]c1=O (stereo not drawn) [Compound 157] | 1000 | 1580 | 0.316
CCc1cc2ccc(C(C)(C#N)CCOc3cccc4ccccc34)cc2[nH]c1=O (stereo not drawn) [Compound 158] | 794 | 1260 | 0.1
CCc1cc2ccc(C(C)(C#N)CCOc3ccccc3C(C)=O)cc2[nH]c1=O (stereo not drawn) [Compound 159] | > 10000 | > 10000 | 3.16
CCc1cc2ccc(C(C)(C#N)CCOc3ccc(Br)cc3)cc2[nH]c1=O (stereo not drawn) [Compound 160] | 1260 | 2000 | 0.316
CCc1cc2ccc(C(C)(C#N)CCOc3ccc(C#N)cc3)cc2[nH]c1=O (stereo not drawn) [Compound 161] | 501 | 501 | 0.1

More lines, main results first:

IC50 [1] [nM] | IC50 [2] [nM] | SMILES | minimal effective concentration [3] [µM]
2510 | 2000 | CCc1cc2ccc(C(C)(C#N)Cc3ccc(OC)cc3)cc2[nH]c1=O (stereo not drawn) [Compound 119] | 1
794 | 251 | CCc1cc2ccc(C(C)(C#N)Cc3cccc(F)c3F)cc2[nH]c1=O (stereo not drawn) [Compound 120] | 0.1
631 | 158 | CCc1cc2ccc(C(C)(C#N)Cc3cccc(Cl)c3Cl)cc2[nH]c1=O (stereo not drawn) [Compound 121] | 0.316
398 | 251 | CCc1cc2ccc(C(C)(C#N)Cc3ccc4ccccc4c3)cc2[nH]c1=O (stereo not drawn) [Compound 122] | 0.316
251 | 200 | CCc1cc2ccc(C(C)(C#N)Cc3cc(C)cc(C)c3)cc2[nH]c1=O (stereo not drawn) [Compound 125] | 0.1
200 | 200 | CCc1cc2ccc(C(C)(C#N)Cc3cc(F)cc(Cl)c3)cc2[nH]c1=O (stereo not drawn) [Compound 126] | 0.1
1000 | 501 | CCc1cc2ccc(C(C)(C#N)Cc3cc(F)cc(C(F)(F)F)c3)cc2[nH]c1=O (stereo not drawn) [Compound 127] | 0.316
200 | 126 | CCc1cc2ccc(C(C)(C#N)Cc3cc(F)cc(F)c3)cc2[nH]c1=O (stereo not drawn) [Compound 128] | 0.1
5010 | 1580 | CCc1cc2ccc(C(C)(C#N)Cc3cccc(S(C)(=O)=O)c3)cc2[nH]c1=O (stereo not drawn) [Compound 129] | 0.316
398 | 158 | CCc1cc2ccc(C(C)(C#N)Cc3cccc(Cl)c3F)cc2[nH]c1=O (stereo not drawn) [Compound 130] | 0.1
631 | 398 | CCc1cc2ccc(C(C)(C#N)Cc3cccc(C)c3F)cc2[nH]c1=O (stereo not drawn) [Compound 132] | 0.1
501 | 251 | CCc1cc2ccc(C(C)(C#N)Cc3cc(Br)cc(Br)c3)cc2[nH]c1=O (stereo not drawn) [Compound 133] | 0.1
1000 | 501 | CCc1cc2ccc(C(C)(C#N)Cc3cccc(C(F)(F)F)c3F)cc2[nH]c1=O (stereo not drawn) [Compound 134] | 0.316
1000 | 316 | CCc1cc2ccc(C(C)(C#N)Cc3c(Cl)cccc3Cl)cc2[nH]c1=O (stereo not drawn) [Compound 135] | 0.2
1000 | 316 | CCc1cc2ccc(C(C)(C#N)Cc3c(Cl)cccc3Br)cc2[nH]c1=O (stereo not drawn) [Compound 136] | 0.316
794 | 251 | CCc1cc2ccc(C(C)(C#N)Cc3ccc(F)cc3F)cc2[nH]c1=O (stereo not drawn) [Compound 137] | 0.316
1000 | 251 | CCc1cc2ccc(C(C)(C#N)Cc3c(F)cccc3F)cc2[nH]c1=O (stereo not drawn) [Compound 138] | 0.2
794 | 126 | CCc1cc2ccc(C(C)(C#N)Cc3ccc(F)cc3Br)cc2[nH]c1=O (stereo not drawn) [Compound 139] | 0.1
631 | 200 | CCc1cc2ccc(C(C)(C#N)Cc3cccc(Cl)c3)cc2[nH]c1=O (stereo not drawn) [Compound 140] | 0.316
79.4 | 126 | CCc1cc2ccc(C(C)(C#N)Cc3cc(Cl)cc(Cl)c3)cc2[nH]c1=O (stereo not drawn) [Compound 141] | 0.1
794 | 501 | CCc1cc2ccc(C(C)(C#N)CCOc3cccc(C)c3)cc2[nH]c1=O (stereo not drawn) [Compound 143] | 0.316
631 | 501 | CCc1cc2ccc(C(C)(C#N)CCOc3ccc(F)cc3)cc2[nH]c1=O (stereo not drawn) [Compound 144] | 0.316
501 | 398 | CCc1cc2ccc(C(C)(C#N)CCOc3ccc(Cl)cc3)cc2[nH]c1=O (stereo not drawn) [Compound 146] | 0.316
2000 | 631 | CCc1cc2ccc(C(C)(C#N)CCOc3cccc(Cl)c3)cc2[nH]c1=O (stereo not drawn) [Compound 151] | 0.316
